According to patent US20160083400A1, “TRICYCLIC GUANIDINE DERIVATIVE” (Sunovion Pharmaceuticals Inc., priority 2014, published 2016):

Target: PDE1B (Homo sapiens, UniProt Q01064)
Assay: In vitro HTRF PDE1 inhibition assay (PDE1B)
Assay type: biochemical
Details: 100 nM cyclic GMP, calmodulin, 45 minutes at 37° C.
Text: The HTRF PDE1 assay utilized the HTRF technology, which is based on the competition between unlabeled cyclic nucleotide and cyclic nucleotide labeled with XL665 for the binding to cyclic nucleotide-specific antibody labeled with cryptate. The HTRF signal is thus inversely proportional to the concentration of cyclic nucleotide being measured. Since phosphodiesterases break down cyclic nucleotides the HTRF signal was used to determine PDE activity.
The Cisbio cGMP HTRF assay kit (Cat no: 62GM2PEC) was utilized. Cyclic GMP was diluted to 200 nM in HTRF assay buffer (1 mM CaCl2, 10 mM MgCl2, 10 mM Tris-HCl, 0.1% BSA, pH7.4). […] PDE (1A3, 1B or 1C) was diluted to 2× working concentration in HTRF assay buffer with 4 μg/ml Calmodulin, and 10 μl was added to initiate the reaction. The plate was then incubated for 45 minutes at 37° C. d2-Labelled cyclic GMP and anti-cGMP cryptate were diluted in 50 mM phosphate buffer, 0.8M KF, 1% Triton X100, 0.2% BSA, pH7.0. Following incubation 10 μl d2-cGMP, then 10 μl anti cGMP cryptate were added to each well and the plate was incubated for 45 minutes at rt. The plate was then read on Perkin Elmer Victor at 2 different FRET readings ex/emm 340 nm/665 nm and 340 nm/615 nm.

PDE1B, sequence (Q01064 whole entry): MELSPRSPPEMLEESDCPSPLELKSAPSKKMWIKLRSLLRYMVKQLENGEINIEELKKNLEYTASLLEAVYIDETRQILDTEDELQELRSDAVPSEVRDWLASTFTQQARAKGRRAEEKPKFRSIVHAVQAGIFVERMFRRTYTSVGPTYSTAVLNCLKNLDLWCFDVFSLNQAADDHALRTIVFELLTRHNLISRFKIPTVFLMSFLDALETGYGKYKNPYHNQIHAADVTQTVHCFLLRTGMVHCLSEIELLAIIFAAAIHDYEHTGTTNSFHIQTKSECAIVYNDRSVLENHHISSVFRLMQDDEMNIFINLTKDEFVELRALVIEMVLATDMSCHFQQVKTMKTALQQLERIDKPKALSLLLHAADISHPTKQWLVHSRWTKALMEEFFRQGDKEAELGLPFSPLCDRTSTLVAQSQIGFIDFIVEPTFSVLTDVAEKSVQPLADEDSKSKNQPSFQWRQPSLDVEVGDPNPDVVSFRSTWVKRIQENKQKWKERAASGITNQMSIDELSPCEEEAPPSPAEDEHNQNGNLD

| SMILES | IC50 |
| --- | --- |
| C=Cc1ncc2c(=O)n3c(nn12)N[C@@H](c1ccc(Cl)cc1)CC3 [Example 248] | 1 to 10 µM |
| COCc1ncc2c(=O)n3c(nn12)N[C@@H](c1ccc(Cl)cc1)CC3 [Example 244] | < 1 µM |
| CC(C)n1ncc2c(=O)n3c(nc21)NC(c1ccccc1Cl)CC3 (stereo not shown) [Example 31] | < 1 µM |
| O=c1c2cnc(C3CCCC3)n2nc2n1CC[C@@H](c1ccc(Cl)cc1)N2 [Example 62] | < 1 µM |
| CC(C)c1ncc2c(=O)n3c(nn12)NC(c1ccc(Cl)nc1)C3 (stereo not shown) [Example 181, 2-(6-Chloro-3-pyridinyl)-8-isopropyl-2,10-dihydro-3H,5H-diimidazo[2,1-c:5′,1′-f][1,2,4]triazin-5-one] | < 1 µM |
| COc1cccc(C2CCn3c(nc4c(cnn4C4CCCC4)c3=O)N2)c1 (stereo not shown) [Example 5] | 10 to 100 µM |
| C[C@H](O)c1ncc2c(=O)n3c(nn12)N[C@@H](c1ccc(Cl)cc1)CC3 [Example 249] | 1 to 10 µM |
| CC(C)n1ncc2c(=O)n3c(nc21)NC(c1ccc(C#N)cc1)C3 (stereo not shown) [compound 87] | < 1 µM |
| CC(C)c1ncc2n1NC1=N[C@@H](c3ccc(Cl)cc3)CN1C2=O [Example 137, (2S)-2-(4-Chlorophenyl)-8-isopropyl-2,10-dihydro-3H,5H-diimidazo[2,1-c:5′,1′-f][1,2,4]triazin-5-one] | < 1 µM |
| O=c1c2cnn(C3CCOCC3)c2nc2n1C[C@@H](c1ccc(Cl)cc1)N2 [Example 147] | 1 to 10 µM |
| COc1cccc(C2CCn3c(nn4c(C(C)C)ncc4c3=O)N2)c1 (stereo not shown) [Example 47] | < 1 µM |
| O=C1c2cnc([C@H]3CCOC3)n2NC2=N[C@@H](c3ccc(Cl)cc3)CN12 [Example 186, (2S)-2-(4-Chlorophenyl)-8-[(3R)-tetrahydro-3-furanyl]-2,10-dihydro-3H,5H-diimidazo[2,1-c:5′,1′-f][1,2,4]triazin-5-one] | < 1 µM |
| N#Cc1ccc(C2CCn3c(nc4c(C5CCOCC5)onc4c3=O)N2)cc1 (stereo not shown) [Example 156] | 10 to 100 µM |
| Cc1cnc(CC2CCn3c(nc4c(cnn4C4CCCC4)c3=O)N2)nc1 (stereo not shown) [Example 70, 1-Cyclopentyl-8-[(5-methyl-2-pyrimidinyl)methyl]-6,7,8,10-tetrahydropyrazolo[3,4-d]pyrimido[1,2-a]pyrimidin-4(1H)-one] | 1 to 10 µM |
| O=c1c2cnn(C3CC3)c2nc2n1CCC(c1ccc(Cl)cc1)N2 (stereo not shown) [Example 15] | < 1 µM |
| O=c1c2cnn(C3CCOCC3)c2nc2n1CCC(Cc1ccc(Cl)cc1)N2 (stereo not shown) [Example 17] | < 1 µM |
| CCCc1ncc2c(=O)n3c(nn12)N[C@@H](c1ccc(Cl)cc1)CC3 [Example 167] | < 1 µM |
| CC(C)Cc1ncc2c(=O)n3c(nn12)N[C@@H](c1ccc(Cl)cc1)CC3 [Example 166] | < 1 µM |
| O=c1c2cnc(C(F)(F)F)n2nc2n1C[C@H](c1ccc(Cl)cc1)N2 [Example 251, (2S)-2-(4-Chlorophenyl)-8-(trifluoromethyl)-2,10-dihydro-3H,5H-diimidazo[2,1-c:5′,1′-f][1,2,4]triazin-5-one] | 1 to 10 µM |
| CC(C)c1nccc2c(=O)n3c(nc12)NC(c1ccc(Cl)cc1)CC3 (stereo not shown) [Example 173] | < 1 µM |
| O=c1c2cnn(C3CCOCC3)c2nc2n1CC(c1ccc(Cl)cc1)N2 (stereo not shown) [Example 75] | < 1 µM |
| CC(C)n1ncc2c(=O)n3c(nc21)NC(c1cccc(Cl)c1)CC3 (stereo not shown) [Example 30] | < 1 µM |
| O=c1c2cnc(C3CCOCC3)n2nc2n1CC[C@@H](c1ccc(Cl)cc1C(F)(F)F)N2 [Example 123] | 1 to 10 µM |
| Cc1cncc([C@@H]2CCn3c(nn4c(C5CCCC5)ncc4c3=O)N2)c1 [Example 133] | < 1 µM |
| O=c1c2cnn(C3CCC3)c2nc2n1CCC(c1ccc(Cl)cc1)N2 (stereo not shown) [Example 44] | < 1 µM |

| SMILES | IC50 |
| --- | --- |
| CC(C)c1ncc2c(=O)n3c(nn12)NC(c1ccc(Cl)cn1)CC3 (stereo not shown) [Example 51] | < 1 µM |
| CC(C)c1ncc2c(=O)n3c(nn12)NC(c1ccc(C(F)(F)F)cc1)CC3 (stereo not shown) [Example 50] | < 1 µM |
| COc1ccc(CC2CCn3c(nc4c(cnn4C4CCOCC4)c3=O)N2)cc1 (stereo not shown) [Example 16] | < 1 µM |
| CC(C)n1ncc2c(=O)n3c(nc21)NC(c1ccccc1)CC3 (stereo not shown) [Example 32] | < 1 µM |
| CO[C@H]1CC[C@@H](c2ncc3c(=O)n4c(nn32)N[C@@H](c2ccc(Cl)cc2)CC4)CC1 [Example 236] | 1 to 10 µM |
| Cc1ccc([C@@H]2CN3C(=O)c4cnc(C(C)C)n4NC3=N2)cc1 [Example 97, (2R)-8-Isopropyl-2-(4-methylphenyl)-2,10-dihydro-3H,5H-diimidazo[2,1-c:5′,1′-f][1,2,4]triazin-5-one] | < 1 µM |
| O=c1c2cnc(C3CCOCC3)n2nc2n1CCC(Cc1ccc(Cl)cc1)N2 (stereo not shown) [Example 59] | < 1 µM |
| N#Cc1cccc(C2CCn3c(nn4c(C5CCOCC5)ncc4c3=O)N2)c1 (stereo not shown) [Example 94] | < 1 µM |
| O=c1c2cnc(C3CCOCC3)n2nc2n1CC(c1ccc(Cl)nc1)N2 (stereo not shown) [Example 183] | < 1 µM |
| O=c1c2cnc(C3CCCC3)n2nc2n1CC[C@@H](c1cncc(Cl)c1)N2 [Example 134] | < 1 µM |
| N#Cc1ccc(C2Cn3c(nc4c(cnn4C4CCOCC4)c3=O)N2)cc1 (stereo not shown) [Example 86, 4-[4-Oxo-1-(tetrahydro-2H-pyran-4-yl)-4,6,7,8-tetrahydro-1H-imidazo[1,2-a]pyrazolo[3,4-d]pyrimidin-7-yl]benzonitrile] | < 1 µM |
| O=c1c2cnc(C3CCOCC3)n2nc2n1CCC1(CCCc3ccccc31)N2 (stereo not shown) [Example 180] | 1 to 10 µM |
| COc1cc(C2CCn3c(nc4c(cnn4C(C)C)c3=O)N2)ccc1F (stereo not shown) [Example 11] | < 1 µM |
| O=c1c2cnc(C3CC3)n2nc2n1CCC(c1ccc(Cl)cc1)N2 (stereo not shown) [Example 67] | < 1 µM |
| COc1ccc([C@@H]2CN3C(=O)c4cnc(C5(C(F)(F)F)CC5)n4NC3=N2)cc1 [Example 255, (2R)-2-(4-Methoxyphenyl)-8-[1-(trifluoromethyl)cyclopropyl]-2,10-dihydro-3H,5H-diimidazo[2,1-c:5′,1′-f][1,2,4]triazin-5-one] | < 1 µM |
| CC(C)n1ncc2c(=O)n3c(nc21)NCCC3 [Example 254, 1-Isopropyl-6,7,8,10-tetrahydropyrazolo[3,4-d]pyrimido[1,2-a]pyrimidin-4(1H)-one] | < 1 µM |
| CC(C)c1ncc2c(=O)n3c(nn12)N[C@@H](c1ccc(O)cc1)C3 [Example 261, (2S)-2-(4-Hydroxyphenyl)-8-isopropyl-2,10-dihydro-3H,5H-diimidazo[2,1-c:5′,1′-f][1,2,4]triazin-5-one] | < 1 µM |
| O=c1c2cnn(CC3CC3)c2nc2n1CCC(c1ccc(Cl)cc1)N2 (stereo not shown) [Example 37] | < 1 µM |
| COc1ccc(CC2CCn3c(nc4c(cnn4C(C)C)c3=O)N2)cc1 (stereo not shown) [Example 13] | < 1 µM |
| N#Cc1ccc(C2CCn3c(nn4c(C5CCOCC5)ncc4c3=O)N2)cc1 (stereo not shown) [Example 93] | < 1 µM |
| CCCn1ncc2c(=O)n3c(nc21)NC(c1ccc(Cl)cc1)CC3 (stereo not shown) [Example 35] | < 1 µM |
| O=c1c2cnc(CC3CC3)n2nc2n1CC[C@H](c1ccc(Cl)cc1)N2 [Example 247] | < 1 µM |
| CC(C)c1ncc2c(=O)n3c(nn12)NC(c1ccc(OCF)cc1)C3 (stereo not shown) [Example 262, 2-[4-(Fluoromethoxy)phenyl]-8-isopropyl-2,10-dihydro-3H,5H-diimidazo[2,1-c:5′,1′-f][1,2,4]triazin-5-one] | < 1 µM |
| CC(C)c1onc2c(=O)n3c(nc12)NC(c1ccc(C#N)cc1)CC3 (stereo not shown) [Example 157] | 1 to 10 µM |
